{
  "source": "patent US12077503B2",
  "about": "“Substituted cyclic amides and their use as herbicides” (FMC CORPORATION, priority 2015, dated 2024)",
  "assay_type_in_all_cases": "in vivo",
  "key": {"[1]": {"tested_on": "blackgrass (Alopecurus myosuroides)", "test": "Test A postemergence", "conditions": "Alopecurus myosuroides, post-emergence, 240 h", "outline": "(§1)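 Seeded soil received test chemicals as a preemergence directed spray, and seedlings at one to two leaves, 2–10 cm tall, received them postemergence, in a non-phytotoxic, surfactant-containing solvent mixture. Pots were held in a greenhouse for approximately 10 d, then rated for injury from 0, no effect, to 100, complete control.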"}, "[2]": {"tested_on": "ragweed (common ragweed, Ambrosia elatior)", "test": "Test A postemergence", "conditions": "Ambrosia artemisiifolia, post-emergence, 240 h", "outline": "as §1"}, "[3]": {"tested_on": "Galium (catchweed bedstraw, Galium aparine)", "test": "Test A postemergence", "conditions": "Galium, post-emergence, 240 h", "outline": "as §1"}, "[4]": {"tested_on": "pigweed (Amaranthus retroflexus)", "test": "Test A postemergence", "conditions": "Amaranthus retroflexus, post-emergence, 240 h", "outline": "as §1"}, "Kochia (Kochia scoparia) [5]": {"tested_on": "Kochia (Kochia scoparia)", "test": "Test A postemergence", "conditions": "Bassia scoparia, post-emergence, 240 h", "outline": "as §1"}, "corn (Zea mays)": {"tested_on": "corn (Zea mays)", "test": "Test A postemergence", "conditions": "Zea mays, post-emergence, 240 h", "outline": "as §1"}, "[6]": {"tested_on": "wheat (Triticum aestivum)", "test": "Test A postemergence", "conditions": "Triticum aestivum, post-emergence, 240 h", "outline": "as §1"}, "[7]": {"tested_on": "barnyardgrass (Echinochloa crus-galli)", "test": "Test A postemergence", "conditions": "Echinochloa crus-galli, post-emergence, 240 h", "outline": "as §1"}, "[8]": {"tested_on": "giant foxtail (Setaria faberii)", "test": "Test A postemergence", "conditions": "Setaria faberi, post-emergence, 240 h", "outline": "as §1"}, "[9]": {"tested_on": "ryegrass, Italian (Italian ryegrass, Lolium multiflorum)", "test": "Test A postemergence", "conditions": "Lolium multiflorum, post-emergence, 240 h", "outline": "as §1"}, "rice (Oryra sativa)": {"tested_on": "rice (Oryra sativa)", "test": "Test B flooded paddy test", "conditions": "Oryza sativa, 250 g ai/ha, Flood; 0 to 100 scale where 0 is no effect and 100 is complete control; read-out: Rice plant response rating", "outline": "(§2)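 Greenhouse paddy pots with 2-leaf stage plants received compound by direct addition to floodwater 3 cm deep, kept at that level. Scored visually at 13–15 d versus controls (0 no effect; 100 complete control).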"}, "[10]": {"tested_on": "sedge, umbrella (small-flower umbrella sedge, Cyperus difformis)", "test": "Test B flooded paddy test", "conditions": "Cyperus difformis, 250 g ai/ha, Flood; 0 to 100 scale where 0 is no effect and 100 is complete control; read-out: Sedge, Umbrella plant response rating", "outline": "as §2"}, "[11]": {"tested_on": "barnyardgrass (Echinochloa crus-galli)", "test": "Test B flooded paddy test", "conditions": "Echinochloa crus-galli, 250 g ai/ha, Flood; 0 to 100 scale where 0 is no effect and 100 is complete control; read-out: Barnyardgrass plant response rating", "outline": "as §2"}, "[12]": {"tested_on": "ducksalad (Heteranthera limosa)", "test": "Test B flooded paddy test", "conditions": "Heteranthera limosa, 250 g ai/ha, Flood; 0 to 100 scale where 0 is no effect and 100 is complete control; read-out: Ducksalad plant response rating", "outline": "as §2"}, "[13]": {"tested_on": "ragweed (common ragweed, Ambrosia elatior)", "test": "Test A preemergence", "conditions": "Ambrosia artemisiifolia, pre-emergence, 240 h, 0 to 100 scale where 0 is no effect and 100 is complete control, read-out: Ragweed plant response rating", "outline": "as §1"}, "[14]": {"tested_on": "pigweed (Amaranthus retroflexus)", "test": "Test A preemergence", "conditions": "Amaranthus retroflexus, pre-emergence, 240 h, 0 to 100 scale where 0 is no effect and 100 is complete control, read-out: Pigweed plant response rating"}, "Kochia (Kochia scoparia) [15]": {"tested_on": "Kochia (Kochia scoparia)", "test": "Test A preemergence", "conditions": "Bassia scoparia, pre-emergence, 240 h, 0 to 100 scale where 0 is no effect and 100 is complete control, read-out: Kochia plant response rating", "outline": "as §1"}, "[16]": {"tested_on": "barnyardgrass (Echinochloa crus-galli)", "test": "Test A preemergence", "conditions": "Echinochloa crus-galli, pre-emergence, 240 h, 0 to 100 scale where 0 is no effect and 100 is complete control, read-out: Barnyardgrass plant response rating", "outline": "as §1"}, "[17]": {"tested_on": "giant foxtail (Setaria faberii)", "test": "Test A preemergence", "conditions": "Setaria faberi, pre-emergence, 240 h, 0 to 100 scale where 0 is no effect and 100 is complete control, read-out: Foxtail, Giant plant response rating", "outline": "as §1"}, "[18]": {"tested_on": "ryegrass, Italian (Italian ryegrass, Lolium multiflorum)", "test": "Test A preemergence", "conditions": "Lolium multiflorum, pre-emergence, 240 h, 0 to 100 scale where 0 is no effect and 100 is complete control, read-out: Ryegrass, Italian plant response rating", "outline": "as §1"}, "[19]": {"conditions": "125 g ai/ha, preemergence, approx. 10 d"}},
  "data": [
    {"smiles": "C=C(C)c1ccc([C@H]2CN(C)C(=O)[C@@H]2C(=O)Nc2cccc(F)c2C)cc1", "note": "[Compound 1150]", "values": [
      {"measurement": "pest or weed control at 125 g/ha", "setting": "[1]; 125 g ai/ha, postemergence, visual injury on 0 to 100 scale (0 no effect, 100 complete control), approx. 10 d, read-out: Blackgrass plant response rating", "value": 0, "unit": "%"},
      {"measurement": "pest or weed control at 31 g/ha", "setting": "[1]; Postemergence, 31 g ai/ha, visual injury after approx. 10 d, 0 to 100 scale, 0 no effect, 100 complete control, read-out: Plant response rating, Blackgrass", "value": 0, "unit": "%"},
      {"measurement": "pest or weed control at 125 g/ha", "setting": "[2]; 125 g ai/ha, postemergence, visual injury vs untreated controls after approx. 10 d, 0 = no effect, 100 = complete control, read-out: Ragweed plant response rating (0 to 100 scale)", "value": 0, "unit": "%"},
      {"measurement": "pest or weed control at 31 g/ha", "setting": "[2]; Postemergence, 31 g ai/ha, visual injury after approx. 10 d, 0 to 100 scale, 0 no effect, 100 complete control, read-out: Plant response rating, Ragweed", "value": 0, "unit": "%"},
      {"measurement": "pest or weed control at 125 g/ha", "setting": "[3]; 125 g ai/ha, postemergence, visual injury on 0 to 100 scale (0 no effect, 100 complete control), approx. 10 d, read-out: Galium plant response rating", "value": 20, "unit": "%"},
      {"measurement": "pest or weed control at 31 g/ha", "setting": "[3]; Postemergence, 31 g ai/ha, visual injury after approx. 10 d, 0 to 100 scale, 0 no effect, 100 complete control, read-out: Plant response rating, Galium", "value": 0, "unit": "%"},
      {"measurement": "pest or weed control at 125 g/ha", "setting": "[4]; 125 g ai/ha, postemergence, visual injury vs untreated controls after approx. 10 d, 0 = no effect, 100 = complete control, read-out: Pigweed plant response rating (0 to 100 scale)", "value": 0, "unit": "%"},
      {"measurement": "pest or weed control at 31 g/ha", "setting": "[4]; Postemergence, 31 g ai/ha, visual injury after approx. 10 d, 0 to 100 scale, 0 no effect, 100 complete control, read-out: Plant response rating, Pigweed", "value": 0, "unit": "%"},
      {"measurement": "pest or weed control at 125 g/ha", "setting": "Kochia (Kochia scoparia) [5]; 125 g ai/ha, postemergence, visual injury on 0 to 100 scale (0 no effect, 100 complete control), approx. 10 d, read-out: Kochia plant response rating", "value": 20, "unit": "%"},
      {"measurement": "pest or weed control at 31 g/ha", "setting": "Kochia (Kochia scoparia) [5]; Postemergence, 31 g ai/ha, visual injury after approx. 10 d, 0 to 100 scale, 0 no effect, 100 complete control, read-out: Plant response rating, Kochia", "value": 0, "unit": "%"},
      {"measurement": "plant injury at 125 g/ha", "setting": "corn (Zea mays); 125 g ai/ha, postemergence, visual injury on 0 to 100 scale (0 no effect, 100 complete control), approx. 10 d, read-out: Corn plant response rating", "value": 20, "unit": "%"},
      {"measurement": "Corn plant response rating (crop injury, 0 = no effect, 100 = complete kill) at 31 g/ha", "setting": "corn (Zea mays); Postemergence, 31 g ai/ha, visual injury after approx. 10 d, 0 to 100 scale, 0 no effect, 100 complete control", "value": 0, "unit": "%"},
      {"measurement": "plant injury at 125 g/ha", "setting": "[6]; 125 g ai/ha, postemergence, visual injury vs untreated controls after approx. 10 d, 0 = no effect, 100 = complete control, read-out: Wheat plant response rating (0 to 100 scale)", "value": 0, "unit": "%"},
      {"measurement": "plant injury at 31 g/ha", "setting": "[6]; Postemergence, 31 g ai/ha, visual injury after approx. 10 d, 0 to 100 scale, 0 no effect, 100 complete control, read-out: Plant response rating, Wheat", "value": 0, "unit": "%"},
      {"measurement": "pest or weed control at 125 g/ha", "setting": "[7]; 125 g ai/ha, postemergence, visual injury on 0 to 100 scale (0 no effect, 100 complete control), approx. 10 d, read-out: Barnyardgrass plant response rating", "value": 40, "unit": "%"},
      {"measurement": "pest or weed control at 31 g/ha", "setting": "[7]; Postemergence, 31 g ai/ha, visual injury after approx. 10 d, 0 to 100 scale, 0 no effect, 100 complete control, read-out: Plant response rating, Barnyardgrass", "value": 0, "unit": "%"},
      {"measurement": "pest or weed control at 125 g/ha", "setting": "[8]; 125 g ai/ha, postemergence, visual injury on 0 to 100 scale (0 no effect, 100 complete control), approx. 10 d, read-out: Foxtail, Giant plant response rating", "value": 50, "unit": "%"},
      {"measurement": "pest or weed control at 31 g/ha", "setting": "[8]; Postemergence, 31 g ai/ha, visual injury after approx. 10 d, 0 to 100 scale, 0 no effect, 100 complete control, read-out: Plant response rating, Foxtail, Giant", "value": 0, "unit": "%"},
      {"measurement": "pest or weed control at 125 g/ha", "setting": "[9]; 125 g ai/ha, postemergence, visual injury vs untreated controls after approx. 10 d, 0 = no effect, 100 = complete control, read-out: Ryegrass, Italian plant response rating (0 to 100 scale)", "value": 0, "unit": "%"},
      {"measurement": "pest or weed control at 31 g/ha", "setting": "[9]; Postemergence, 31 g ai/ha, visual injury after approx. 10 d, 0 to 100 scale, 0 no effect, 100 complete control, read-out: Plant response rating, Ryegrass, Italian", "value": 0, "unit": "%"},
      {"measurement": "pest or weed control at 250 g/ha", "setting": "rice (Oryra sativa)", "value": 0, "unit": "%"},
      {"measurement": "pest or weed control at 250 g/ha", "setting": "[10]", "value": 0, "unit": "%"},
      {"measurement": "pest or weed control at 250 g/ha", "setting": "[11]", "value": 0, "unit": "%"},
      {"measurement": "pest or weed control at 250 g/ha", "setting": "[12]", "value": 0, "unit": "%"},
      {"measurement": "pest or weed control at 31 g/ha", "setting": "[13]; 31 g ai/ha, Preemergence", "value": 0, "unit": "%"},
      {"measurement": "pest or weed control at 125 g/ha", "setting": "[13]; [19]", "value": 0, "unit": "%"},
      {"measurement": "pest or weed control at 31 g/ha", "setting": "[14]; 31 g ai/ha, Preemergence", "value": 0, "unit": "%"},
      {"measurement": "pest or weed control at 125 g/ha", "setting": "[14]; [19]", "value": 0, "unit": "%"},
      {"measurement": "pest or weed control at 31 g/ha", "setting": "Kochia (Kochia scoparia) [15]; 31 g ai/ha, Preemergence", "value": 0, "unit": "%"},
      {"measurement": "pest or weed control at 125 g/ha", "setting": "Kochia (Kochia scoparia) [15]; [19]", "value": 0, "unit": "%"},
      {"measurement": "pest or weed control at 31 g/ha", "setting": "[16]; 31 g ai/ha, Preemergence", "value": 0, "unit": "%"},
      {"measurement": "pest or weed control at 125 g/ha", "setting": "[16]; [19]", "value": 70, "unit": "%"},
      {"measurement": "pest or weed control at 31 g/ha", "setting": "[17]; 31 g ai/ha, Preemergence", "value": 30, "unit": "%"},
      {"measurement": "pest or weed control at 125 g/ha", "setting": "[17]; [19]", "value": 90, "unit": "%"},
      {"measurement": "pest or weed control at 31 g/ha", "setting": "[18]; 31 g ai/ha, Preemergence", "value": 0, "unit": "%"},
      {"measurement": "pest or weed control at 125 g/ha", "setting": "[18]; [19]", "value": 0, "unit": "%"}
    ]}
  ]
}
